Assay results reported in PMC4826033 (ACS chemical biology, 2015).

How the values were obtained:
[1] = tested on: E. coli indicator strain ATCC 27856; test: Antibacterial activity against E. coli indicator strain; assay type: cell-based; settings: data not shown
20S proteasome = settings: cited from earlier work

Row | Compound | antibacterial activity against E. coli [1] | proteasome inhibitory properties (in words) (20S proteasome)
1 | C=C(NC(=O)C(=C)NC(=O)c1csc(C2=N[C@@H]3c4csc(n4)[C@H]4NC(=O)c5csc(n5)[C@H]([C@](C)(O)[C@@H](C)O)NC(=O)[C@H]5CSC(=N5)/C(=C/C)NC(=O)[C@H]([C@@H](C)O)NC(=O)c5csc(n5)[C@]3(CC2)NC(=O)[C@H](C)NC(=O)C(=C)NC(=O)[C@H](C)NC(=O)[C@H]([C@@H](C)CC)N[C@@H]2C=Cc3c([C@H](C)O)cc(nc3[C@H]2O)C(=O)O[C@@H]4C)n1)C(N)=O [Thiostrepton A] | Neither thiostrepton A nor its Ala4 variants displayed any antibacterial activity | active proteasome inhibitors
2 | C/C=C(\NC(=O)c1csc(-c2csc(-c3ccc4c(n3)-c3csc(n3)[C@H]([C@@H](C)O)NC(=O)c3csc(n3)[C@H](C(C)C)NC(=O)c3csc(n3)/C(=C/C)NC(=O)[C@H]([C@@H](C)O)NC(=O)c3csc-4n3)n2)n1)C(=O)NC[C@@H](C)O [micrococcin P1] |  | have not yet revealed any proteasome inhibitory properties
3 | C=C(NC(=O)C(=C)NC(=O)c1csc(C2=NC3c4csc(n4)[C@H]4NC(=O)c5csc(n5)[C@H]([C@](C)(O)[C@@H](C)O)NC(=O)[C@H]5CSC(=N5)/C(=C/C)NC(=O)[C@H]([C@@H](C)O)NC(=O)c5csc(n5)[C@@]3(CC2)NC(=O)[C@H](C)NC(=O)C(=C)NC(=O)C(=C)NC(=O)[C@H](C(C)C)N[C@@H]2C=Cc3c([C@H](C)O)cc(nc3[C@H]2O)C(=O)O[C@@H]4C)n1)C(N)=O (some centres unmarked) [siomycin] |  | active proteasome inhibitors
4 | C/C=C(\NC(=O)c1csc(-c2csc(-c3ccc4c(n3)-c3csc(n3)[C@H]([C@@H](C)O)NC(=O)c3csc(n3)[C@H](C(C)(C)O)NC(=O)c3csc(n3)/C(=C/C)NC(=O)[C@H]([C@@H](C)O)NC(=O)c3csc-4n3)n2)n1)C(=O)NC[C@@H](C)O [thiocillin I] |  | have not yet revealed any proteasome inhibitory properties
